Source: patent US20220062240A1, “METHODS OF TREATING CANCER USING A CLK INHIBITOR” (BioSplice Therapeutics, Inc., priority 2018, published 2022)
Read-outs that look alike come from different tables or passages of the source. Each block holds one compound with its values, some of them ahead of it.

Legend:
MDA-MB-231-Luc = test: CellTiter-Glo Viability Assay, breast cancer; assay type: cell-based; conditions: Homo sapiens, 96 h; MDA-MB-231-Luc, breast cancer, four days; read-out: EC50
HCC1599 = test: CellTiter-Glo Viability Assay, breast cancer; assay type: cell-based; conditions: Homo sapiens, 96 h; HCC1599, breast cancer, four days; read-out: EC50
T47D = test: CellTiter-Glo Viability Assay, breast cancer; assay type: cell-based; conditions: Homo sapiens, 96 h, breast cancer, four days, read-out: EC50
MCF7 = test: CellTiter-Glo Viability Assay, breast cancer; assay type: cell-based; conditions: Homo sapiens, 96 h; MCF7, breast cancer, four days; read-out: EC50
BT-549 = test: CellTiter-Glo Viability Assay, breast cancer; assay type: cell-based; conditions: Homo sapiens, 96 h; BT-549, breast cancer, four days; read-out: EC50
CAMA1 = test: CellTiter-Glo Viability Assay, breast cancer; assay type: cell-based; conditions: Homo sapiens, CAMA-1, 96 h; CAMA1, breast cancer, four days; read-out: EC50
ZR-75-1 = test: CellTiter-Glo Viability Assay, breast cancer; assay type: cell-based; conditions: Homo sapiens, 96 h; ZR-75-1, breast cancer, four days; read-out: EC50
DU4475 = test: CellTiter-Glo Viability Assay, breast cancer; assay type: cell-based; conditions: Homo sapiens, DU-4475, 96 h; DU4475, breast cancer, four days; read-out: EC50
[1] = system: ovarian cancer (4 cell lines); test: CellTiter-Glo Viability Assay, ovarian cancer; assay type: cell-based; conditions: Homo sapiens, inhibition of cancer cell proliferation
[2] = system: colorectal cancer (6 cell lines); test: CellTiter-Glo Viability Assay, colorectal cancer; assay type: cell-based; conditions: Homo sapiens, inhibition of cancer cell proliferation
[3] = system: liver cancer (3 cell lines); test: CellTiter-Glo Viability Assay, liver cancer; assay type: cell-based; conditions: Homo sapiens, inhibition of cancer cell proliferation
all 50 cell lines = test: CellTiter-Glo Viability Assay, average across all cell lines; assay type: cell-based; conditions: Homo sapiens; across all 50 cell lines; read-out: average EC50 for inhibition of cancer cell proliferation
Outline: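 Luminescent ATP read-out (CellTiter-Glo) after a 4-day compound exposure at 37° C served as the viability measure. Cells were seeded at 300-3,000/well, compound wells run in duplicate against DMSO controls, and EC50 values came from fitted dose-response curves.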

[4] = system: pancreatic cancer (8 cell lines); test: CellTiter-Glo Viability Assay, pancreatic cancer; assay type: cell-based; conditions: Homo sapiens, inhibition of cancer cell proliferation
CLK2 = target: T1, CLK2 (Homo sapiens, UniProt P49760); test: CLK2 kinase activity assay (Z-lyte, Ser/Thr 6 peptide); assay type: biochemical; conditions: recombinant CLK2 kinase, ATP 60 μM; read-out: EC50
T1 construct: purchased Thermo Fisher (Life Technologies), Z'-LYTE Kinase Assay Kits
Experimental: All reactions were performed in duplicate.

[5] = system: lung cancer (4 cell lines); test: CellTiter-Glo Viability Assay, lung cancer; assay type: cell-based; conditions: Homo sapiens, inhibition of cancer cell proliferation
[6] = system: haematopoietic & lymphoid tumors (13 cell lines); test: CellTiter-Glo Viability Assay, haematopoietic & lymphoid tumors; assay type: cell-based; conditions: Homo sapiens, inhibition of cancer cell proliferation
[7] = system: prostate cancer (5 cell lines); test: CellTiter-Glo Viability Assay, prostate cancer; assay type: cell-based; conditions: Homo sapiens
CLK3 = CLK3 (Homo sapiens, UniProt P49761); test: CLK3 kinase activity assay (Z-lyte, Ser/Thr 18 peptide)
[8] = PA-1, PA1 cell line, read-out: Ovarian cancer, EC50 (μM) PA1
[9] = TOV112D, TOV-112D cell line, read-out: Ovarian cancer, EC50 (μM) TOV-112D
[10] = OV-90 cell line, read-out: Ovarian cancer, EC50 (μM) OV-90
[11] = OVCAR-3 cell line, read-out: Ovarian cancer, EC50 (μM) OVCAR-3
[12] = HCT-116, HCT116 cell line, read-out: Colorectal cancer, EC50 (μM) HCT116
[13] = HT-29, HT29 cell line, read-out: Colorectal cancer, EC50 (μM) HT29
[14] = SW-620, SW620 cell line, read-out: Colorectal cancer, EC50 (μM) SW620
[15] = DLD-1 cell line, read-out: Colorectal cancer, EC50 (μM) DLD-1
[16] = SW48 cell line, read-out: Colorectal cancer, EC50 (μM) SW48
[17] = SW480 cell line, read-out: Colorectal cancer, EC50 (μM) SW480
[18] = SNU-398, SNU398 cell line, read-out: Liver cancer, EC50 SNU398
[19] = HEPG2 cell line, read-out: Liver cancer, EC50 HEPG2
[20] = PLC/PRF/5 cell line, read-out: Liver cancer, EC50 PLC/PRF/5
[21] = BXPC-3, BxPC3 cell line, read-out: Pancreatic cancer, EC50 BxPC3
[22] = CAPAN-1, Capan1 cell line, read-out: Pancreatic cancer, EC50 Capan1
[23] = Capan-2, Capan2 cell line, read-out: Pancreatic cancer, EC50 Capan2
[24] = MIA PaCa-2 cell line, read-out: Pancreatic cancer, EC50 MIA PaCa-2
[25] = PANC 05.04 cell line, read-out: Pancreatic cancer, EC50 PANC 05.04
[26] = PANC-1 cell line, read-out: Pancreatic cancer, EC50 PANC-1
[27] = UPAFII cell line, read-out: Pancreatic cancer, EC50 UPAFII
[28] = A-427, A427 cell line, read-out: Lung cancer, EC50 (μM) A427
[29] = HCC78, HCC-78 cell line, read-out: Lung cancer, EC50 (μM) HCC-78
[30] = NCI-H460 cell line, read-out: Lung cancer, EC50 (μM) NCI-H460
[31] = NCI-H522 cell line, read-out: Lung cancer, EC50 (μM) NCI-H522
[32] = DND41, DND-41 cell line, read-out: Haematopoietic & Lymphoid tumors, EC50 (μM) DND-41
[33] = MV4-11, MV-4-11 cell line, read-out: Haematopoietic & Lymphoid tumors, EC50 (μM) MV-4-11
[34] = Rec1, REC-1 cell line, read-out: Haematopoietic & Lymphoid tumors, EC50 (μM) REC-1
[35] = SU-DHL-4, SUDHL4 cell line, read-out: Haematopoietic & Lymphoid tumors, EC50 (μM) SUDHL4
[36] = HL-60 cell line, read-out: Haematopoietic & Lymphoid tumors, EC50 (μM) HL-60
[37] = JM1 cell line, read-out: Haematopoietic & Lymphoid tumors, EC50 (μM) JM1
[38] = JURKAT, Clone E6-1 cell line, read-out: Haematopoietic & Lymphoid tumors, EC50 (μM) JURKAT, Clone E6-1
[39] = JeKo-1 cell line, read-out: Haematopoietic & Lymphoid tumors, EC50 (μM) JeKo-1
[40] = KASUMI-1 cell line, read-out: Haematopoietic & Lymphoid tumors, EC50 (μM) KASUMI-1
[41] = Loucy cell line, read-out: Haematopoietic & Lymphoid tumors, EC50 (μM) Loucy
[42] = MOLT-4 cell line, read-out: Haematopoietic & Lymphoid tumors, EC50 (μM) MOLT-4
[43] = TF-1 cell line, read-out: Haematopoietic & Lymphoid tumors, EC50 (μM) TF-1
[44] = TOLEDO cell line, read-out: Haematopoietic & Lymphoid tumors, EC50 (μM) TOLEDO
[45] = DU-145, read-out: Prostate cancer EC50 Du-145
[46] = PC-3, PC3 cell line, inhibition of cancer cell proliferation, read-out: Prostate cancer EC50 PC3
[47] = 22Rv1 cell line, inhibition of cancer cell proliferation, read-out: Prostate cancer EC50 22Rv1
[48] = LNCap clone FGC cell line, inhibition of cancer cell proliferation, read-out: Prostate cancer EC50 LNCap clone FGC
[49] = VCaP (Sigma) cell line, inhibition of cancer cell proliferation, read-out: Prostate cancer EC50 VCaP (Sigma)

Sequence of CLK3 (P49761 whole entry): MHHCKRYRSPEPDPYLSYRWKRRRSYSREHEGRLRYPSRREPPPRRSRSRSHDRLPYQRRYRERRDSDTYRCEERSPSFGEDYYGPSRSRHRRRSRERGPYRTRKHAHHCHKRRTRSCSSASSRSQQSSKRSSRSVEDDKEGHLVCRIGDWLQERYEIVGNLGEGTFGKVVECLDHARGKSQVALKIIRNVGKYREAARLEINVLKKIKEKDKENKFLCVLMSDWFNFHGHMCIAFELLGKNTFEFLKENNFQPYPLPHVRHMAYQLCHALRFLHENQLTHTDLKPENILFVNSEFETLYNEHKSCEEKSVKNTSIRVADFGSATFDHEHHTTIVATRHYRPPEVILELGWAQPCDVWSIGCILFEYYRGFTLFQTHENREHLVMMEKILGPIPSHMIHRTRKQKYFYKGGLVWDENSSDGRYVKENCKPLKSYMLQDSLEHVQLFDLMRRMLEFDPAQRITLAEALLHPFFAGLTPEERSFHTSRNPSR
T1 sequence (P49760 whole entry): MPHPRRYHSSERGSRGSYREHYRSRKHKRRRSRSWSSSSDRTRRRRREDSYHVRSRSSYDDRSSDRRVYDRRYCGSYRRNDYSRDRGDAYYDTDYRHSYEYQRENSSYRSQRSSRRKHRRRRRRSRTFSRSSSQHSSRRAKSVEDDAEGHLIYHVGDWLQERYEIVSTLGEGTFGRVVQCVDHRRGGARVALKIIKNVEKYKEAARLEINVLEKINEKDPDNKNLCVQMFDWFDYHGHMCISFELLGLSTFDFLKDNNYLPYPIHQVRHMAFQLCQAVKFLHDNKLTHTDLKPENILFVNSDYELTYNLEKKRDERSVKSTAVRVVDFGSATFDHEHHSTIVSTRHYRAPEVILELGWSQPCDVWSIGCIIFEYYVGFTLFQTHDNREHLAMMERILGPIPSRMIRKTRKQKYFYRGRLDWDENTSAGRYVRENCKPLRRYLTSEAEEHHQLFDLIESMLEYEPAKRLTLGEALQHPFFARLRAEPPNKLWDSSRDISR

EC50 (MDA-MB-231-Luc): 4060 nM
EC50 (HCC1599): 2190 nM
EC50 (T47D): 4620 nM
EC50 (MCF7): 6640 nM
EC50 (BT-549): 4500 nM
EC50 (CAMA1): 3090 nM
EC50 (ZR-75-1): 4030 nM
EC50 (DU4475): 3220 nM
EC50 [1, 8]: 3.18 µM
EC50 [1, 9]: 1.97 µM
EC50 [1, 10]: 5.6 µM
EC50 [1, 11]: 1.41 µM
EC50 [2, 12]: 2.06 µM
EC50 [2, 13]: 6.22 µM
EC50 [2, 14]: 1.4 µM
EC50 [2, 15]: 7.22 µM
EC50 [2, 16]: 0.926 µM
EC50 [2, 17]: 1.51 µM
EC50 [3, 18]: 631 nM
EC50 [3, 19]: 3680 nM
EC50 [3, 20]: > 10000 nM
EC50 [4, 21]: 9580 nM
EC50 [4, 22]: 3720 nM
EC50 [4, 23]: 7500 nM
EC50 [4, 24]: 1110 nM
EC50 [4, 25]: 5110 nM
EC50 [4, 26]: 8910 nM
EC50 [4, 27]: 3510 nM
EC50 (CLK2): 8.9 nM
EC50 [5, 28]: 2.81 µM
EC50 [5, 29]: 5.46 µM
EC50 [5, 30]: > 10 µM
EC50 [5, 31]: 1.59 µM
EC50 [6, 32]: 2.11 µM
EC50 [6, 33]: 0.879 µM
EC50 [6, 34]: 2.45 µM
EC50 [6, 35]: 2.27 µM
EC50 [6, 36]: 3.25 µM
EC50 [6, 37]: 1.19 µM
EC50 [6, 38]: 4.05 µM
EC50 [6, 39]: 0.731 µM
EC50 [6, 40]: 3.05 µM
EC50 [6, 41]: 1.6 µM
EC50 [6, 42]: 3.61 µM
EC50 [6, 43]: > 10 µM
EC50 [6, 44]: 2.8 µM
EC50 [7, 45]: 5780 nM
EC50 [7, 46]: 3980 nM
EC50 [7, 47]: 2850 nM
EC50 [7, 48]: 9120 nM
EC50 [7, 49]: 6020 nM
EC50 (CLK3): 38.6 nM
SMILES: CN(C)C1CCN(c2cc(C(=O)Nc3ncc4ccc(-c5cn(C)nn5)cc4n3)ccn2)CC1 [Compound 80]
EC50 (all 50 cell lines): 4070 nM

EC50 (MDA-MB-231-Luc): 338 nM
EC50 (HCC1599): 165 nM
EC50 (T47D): 471 nM
EC50 (MCF7): 505 nM
EC50 (BT-549): 273 nM
EC50 (CAMA1): 429 nM
EC50 (ZR-75-1): 441 nM
EC50 (DU4475): 152 nM
EC50 [1, 8]: 0.218 µM
EC50 [1, 9]: 0.228 µM
EC50 [1, 10]: 0.838 µM
EC50 [1, 11]: 0.315 µM
EC50 [2, 12]: 0.147 µM
EC50 [2, 13]: 0.433 µM
EC50 [2, 14]: 0.135 µM
EC50 [2, 15]: 0.199 µM
EC50 [2, 16]: 0.12 µM
EC50 [2, 17]: 0.132 µM
EC50 [3, 18]: 112 nM
EC50 [3, 19]: 470 nM
EC50 [3, 20]: 466 nM
EC50 [4, 21]: 848 nM
EC50 [4, 22]: 372 nM
EC50 [4, 23]: 620 nM
EC50 [4, 24]: 261 nM
EC50 [4, 25]: 564 nM
EC50 [4, 26]: 600 nM
EC50 [4, 27]: 348 nM
EC50 (CLK2): 3.4 nM
EC50 [5, 28]: 0.216 µM
EC50 [5, 29]: 0.396 µM
EC50 [5, 30]: 0.329 µM
EC50 [5, 31]: 0.216 µM
EC50 [6, 32]: 0.213 µM
EC50 [6, 33]: 0.025 µM
EC50 [6, 34]: 0.106 µM
EC50 [6, 35]: 0.407 µM
EC50 [6, 36]: 0.235 µM
EC50 [6, 37]: 0.12 µM
EC50 [6, 38]: 0.305 µM
EC50 [6, 39]: 0.136 µM
EC50 [6, 40]: 0.206 µM
EC50 [6, 41]: 0.374 µM
EC50 [6, 42]: 0.186 µM
EC50 [6, 43]: 0.391 µM
EC50 [6, 44]: 0.13 µM
EC50 [7, 45]: 429 nM
EC50 [7, 46]: 287 nM
EC50 [7, 47]: 329 nM
EC50 [7, 48]: 444 nM
EC50 [7, 49]: 497 nM
EC50 (CLK3): 15.4 nM
SMILES: [2H]c1c([2H])c([2H])c(/C=C/C(=O)Nc2cc3cc(-c4cncn4C)ccc3cn2)c([2H])c1[2H] [Compound 81]
EC50 (all 50 cell lines): 324 nM
